The compounds below were run against pneumolysin (Streptococcus pneumoniae serotype 2, UniProt Q04IN8) (assay: Inhibition of the haemolytic activity of pneumolysin (sheep erythrocytes)). Conditions: IC50, inhibition of pneumolysin-induced haemolysis of sheep erythrocytes; class symbols of Table 1.
Format: cell-based

Chain of pneumolysin (Q04IN8 whole entry): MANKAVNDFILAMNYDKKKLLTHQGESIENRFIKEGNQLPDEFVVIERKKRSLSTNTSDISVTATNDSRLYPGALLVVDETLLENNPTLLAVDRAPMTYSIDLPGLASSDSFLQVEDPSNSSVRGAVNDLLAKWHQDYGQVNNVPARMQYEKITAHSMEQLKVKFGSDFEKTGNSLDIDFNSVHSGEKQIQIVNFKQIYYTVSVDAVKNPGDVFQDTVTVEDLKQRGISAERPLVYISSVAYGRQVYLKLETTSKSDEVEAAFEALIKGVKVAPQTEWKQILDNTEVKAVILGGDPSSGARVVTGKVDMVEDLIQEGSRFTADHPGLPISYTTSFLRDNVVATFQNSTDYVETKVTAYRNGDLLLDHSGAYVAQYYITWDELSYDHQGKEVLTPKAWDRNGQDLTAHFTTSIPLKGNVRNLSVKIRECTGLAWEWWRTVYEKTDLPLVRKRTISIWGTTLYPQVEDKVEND

`CCOC(=O)c1c(O)c(O)c(C(=O)OC(C)C)n1-c1ccc(OC)cc1` [UL2-021, 2-ethyl 5-isopropyl 3,4-dihydroxy-1-(4-methoxyphenyl)-1H-pyrrole-2,5-dicarboxylate] and `CCOC(=O)c1c(O)c(O)c(C(N)=O)n1-c1ccc(OC)cc1` [UL1-080, ethyl 5-carbamoyl-3,4-dihydroxy-1-(4-methoxyphenyl)-1H-pyrrole-2-carboxylate] cannot be ordered by IC50: under 10 µM for the first, under 10 µM for the second.

Compared with `CCOC(=O)c1c(O)c(OCC(N)=O)c(C(=O)OCC)n1-c1ccc(OC)cc1` [UL2-031, diethyl 3-(2-amino-2-oxoethoxy)-4-hydroxy-1-(4-methoxyphenyl)-1H-pyrrole-2,5-dicarboxylate], `CCCOc1ccc(-n2c(C(=O)OCC)c(O)c(O)c2C(=O)OCC)cc1` [UL2-016, diethyl 3,4-dihydroxy-1-(4-propoxyphenyl)-1H-pyrrole-2,5-dicarboxylate] is lower in IC50: 20 to 60 µM for the first, under 10 µM for the second.

`COc1ccc(-n2c(C(=O)N(C)C)c(O)c(O)c2C(=O)N2CCCCC2)cc1` [UL1-025, 3,4-dihydroxy-1-(4-methoxyphenyl)-N,N-dimethyl-5-(piperidine-1-carbonyl)-1H-pyrrole-2-carboxamide] and `COc1ccc(-n2c(C(=O)OC(C)(C)C)c(O)c(O)c2C(=O)N(C)C)cc1` [UL1-036, tert-butyl 5-(dimethylcarbamoyl)-3,4-dihydroxy-1-(4-methoxyphenyl)-1H-pyrrole-2-carboxylate] cannot be ordered by IC50: under 10 µM for the first, under 10 µM for the second.

`COc1ccc(-n2c(C(=O)OC(C)(C)C)c(O)c(O)c2C(=O)OC(C)(C)C)cc1` [UL2-022, di-tert-butyl 3,4-dihydroxy-1-(4-methoxyphenyl)-1H-pyrrole-2,5-dicarboxylate] and `COc1ccc(-n2c(C(=O)N3CCN(C(=O)OC(C)(C)C)CC3)c(O)c(O)c2C(=O)N2CCN(C(=O)OC(C)(C)C)CC2)cc1` [UL1-015, di-tert-butyl 4,4′-(3,4-dihydroxy-1-(4-methoxyphenyl)-1H-pyrrole-2,5-dicarbonyl)bis(piperazine-1-carboxylate)] cannot be ordered by IC50: under 10 µM for the first, under 10 µM for the second.

`CCOc1ccc(-n2c(C(=O)N(C)C)c(O)c(O)c2C(=O)N(C)C)cc1` [UL1-021, 1-(4-ethoxyphenyl)-3,4-dihydroxy-N^2,N^2,N^5,N^5-tetramethyl-1H-pyrrole-2,5-dicarboxamide] and `CN(C)C(=O)c1c(O)c(O)c(C(=O)N(C)C)n1-c1ccc(F)cc1` [ULI-008, 1-(4-fluorophenyl)-3,4-dihydroxy-N^2,N^2,N^5,N^5-tetramethyl-1H-pyrrole-2,5-dicarboxamide] cannot be ordered by IC50: under 10 µM for the first, under 10 µM for the second.

`CCOc1ccc(-n2c(C(=O)N(CC)CC)c(O)c(O)c2C(=O)N(CC)CC)cc1` [UL1-002, 1-(4-ethoxyphenyl)-N^2,N^2,N^5,N^5-tetraethyl-3,4-dihydroxy-1H-pyrrole-2,5-dicarboxamide] and `CCOc1ccc(-n2c(C(=O)N(CC)CC)c(OCc3ccccc3)c(OCc3ccccc3)c2C(=O)N(CC)CC)cc1` [UL1-045, 3,4-bis(benzyloxy)-1-(4-ethoxyphenyl)-N^2,N^2,N^5,N^5-tetraethyl-1H-pyrrole-2,5-dicarboxamide] cannot be ordered by IC50: under 10 µM for the first, under 10 µM for the second.

`CCOC(=O)c1c(O)c(O)c(C(=O)OCC)n1-c1ccc(OCCCN2CCOCC2)cc1` [UL2-037, diethyl 3,4-dihydroxy-1-(4-(3-morpholinopropoxy)phenyl)-1H-pyrrole-2,5-dicarboxylate] and `CCOC(=O)c1c(O)c(O)c(C(=O)OCC)n1-c1ccc(CC)cc1` [UL2-009, diethyl 1-(4-ethylphenyl)-3,4-dihydroxy-1H-pyrrole-2,5-dicarboxylate] cannot be ordered by IC50: under 10 µM for the first, under 10 µM for the second.

First: CCOc1ccc(-n2c(C(=O)N3CCOCC3)c(OCc3ccccc3)c(OCc3ccccc3)c2C(=O)N2CCOCC2)cc1 [UL1-053, (3,4-bis(benzyloxy)-1-(4-ethoxyphenyl)-1H-pyrrole-2,5-diyl)bis(morpholinomethanone)]
Second: COc1ccc(-n2c(C(=O)N3CCCCC3)c(OCc3ccccc3)c(OCc3ccccc3)c2C(=O)N2CCCCC2)cc1 [UL1-049, (3,4-bis(benzyloxy)-1-(4-methoxyphenyl)-1H-pyrrole-2,5-diyl)bis(piperidin-1-ylmethanone)]
The IC50 of the first is higher: 10 to 20 µM for the first, under 10 µM for the second. The second is the more potent here.

`CCOC(=O)c1c(O)c(O)c(C(=O)OCC)n1-c1ccc(Oc2ccccc2)cc1` [UL2-007, diethyl 3,4-dihydroxy-1-(4-phenoxyphenyl)-1H-pyrrole-2,5-dicarboxylate] and `CCOC(=O)c1c(O)c(O)c(C(=O)OCC)n1-c1ccc(OCc2ccc(OC)cc2)cc1` [UL2-038, diethyl 3,4-dihydroxy-1-(4-((4-methoxybenzyl)oxy)phenyl)-1H-pyrrole-2,5-dicarboxylate] cannot be ordered by IC50: under 10 µM for the first, under 10 µM for the second.

Compared with `CCOC(=O)c1c(O)c(O)c(C(=O)OCC)n1-c1ccccc1OC` [UL2-023, diethyl 3,4-dihydroxy-1-(2-methoxyphenyl)-1H-pyrrole-2,5-dicarboxylate], `COc1ccccc1-n1c(C(=O)N(C)C)c(O)c(O)c1C(=O)N(C)C` [UL1-019, 3,4-dihydroxy-1-(2-methoxyphenyl)-N^2,N^2,N^5,N^5-tetramethyl-1H-pyrrole-2,5-dicarboxamide] is lower in IC50: 20 to 60 µM for the first, under 10 µM for the second. The second is the more potent here.

`CCOC(=O)c1c(O)c(O)c(-c2nn[nH]n2)n1-c1ccc(OC)cc1` [UL1-089, ethyl 3,4-dihydroxy-1-(4-methoxyphenyl)-5-(2H-tetrazol-5-yl)-1H-pyrrole-2-carboxylate] and `CCOC(=O)c1c(O)c(O)c(-c2ccccn2)n1-c1ccc(OC)cc1` [UL1-083, ethyl 3,4-dihydroxy-1-(4-methoxyphenyl)-5-(pyridin-2-yl)-1H-pyrrole-2-carboxylate] cannot be ordered by IC50: under 10 µM for the first, under 10 µM for the second.

`COc1ccc(-n2c(C(=O)N(C)C)c(OC(=O)[C@H]3CC[C@H](COP(=O)(O)O)CC3)c(OC(=O)[C@H]3CC[C@H](COP(=O)(O)O)CC3)c2C(=O)N(C)C)cc1` [UL1-126, (1R,1′R,4R,4′R)-2,5-bis(dimethylcarbamoyl)-1-(4-methoxyphenyl)-1H-pyrrole-3,4-diyl bis(4-((phosphonooxy)methyl)cyclohexanecarboxylate)] and `COc1ccc(-n2c(C(=O)N(C)C)c(OC(=O)C3CCNCC3)c(OC(=O)C3CCNCC3)c2C(=O)N(C)C)cc1` [UL1-123, 2,5-bis(dimethylcarbamoyl)-1-(4-methoxyphenyl)-1H-pyrrole-3,4-diyl bis(piperidine-4-carboxylate)] cannot be ordered by IC50: under 10 µM for the first, under 10 µM for the second.

First: CCOC(=O)c1c(OCc2ccccc2)c(OCc2ccccc2)c(C(=O)N(C)C)n1-c1ccc(I)cc1 [UL1-062, ethyl 3,4-bis(benzyloxy)-5-(dimethylcarbamoyl)-1-(4-iodophenyl)-1H-pyrrole-2-carboxylate]
Second: COc1ccc(-n2c(C(=O)N(C)C)c(OCc3ccccc3)c(OCc3ccccc3)c2C(=O)N(C)C)cc1 [UL1-047, 3,4-bis(benzyloxy)-1-(4-methoxyphenyl)-N^2,N^2,N^5,N^5-tetramethyl-1H-pyrrole-2,5-dicarboxamide]
The IC50 of the first is lower: under 10 µM for the first, 10 to 20 µM for the second.

`COc1ccc(-n2c(C(=O)N3CCNCC3)c(O)c(O)c2C(=O)N2CCNCC2)cc1` [UL1-016, (3,4-dihydroxy-1-(4-methoxyphenyl)-1H-pyrrole-2,5-diyl)bis(piperazin-1-ylmethanone)] and `CCOC(=O)c1c(O)c(O)c(C(=O)N(C)C)n1-c1ccc(F)cc1` [UL1-032, ethyl 5-(dimethylcarbamoyl)-1-(4-fluorophenyl)-3,4-dihydroxy-1H-pyrrole-2-carboxylate] cannot be ordered by IC50: under 10 µM for the first, under 10 µM for the second.

`CN(C)C(=O)c1c(O)c(O)c(C(=O)N(C)C)n1-c1ccc(C(F)(F)F)cc1` [UL1-028, 3,4-dihydroxy-N^2,N^2,N^5,N^5-tetramethyl-1-(4-(trifluoromethyl)phenyl)-1H-pyrrole-2,5-dicarboxamide] and `CCOC(=O)c1c(O)c(O)c(C(=O)N(C)C)n1-c1ccc(OCCCS(C)(=O)=O)cc1` [UL1-110, ethyl 5-(dimethylcarbamoyl)-3,4-dihydroxy-1-(4-(3-(methylsulfonyl)propoxy)phenyl)-1H-pyrrole-2-carboxylate] cannot be ordered by IC50: under 10 µM for the first, under 10 µM for the second.

`CCOC(=O)c1c(O)c(O)c(C(=O)OCC)n1-c1cc(F)c(OCC)c(F)c1` [UL2-017, diethyl 1-(4-ethoxy-3,5-difluorophenyl)-3,4-dihydroxy-1H-pyrrole-2,5-dicarboxylate] and `CN(Cc1ccccc1)C(=O)c1c(O)c(O)c(C(=O)N(C)Cc2ccccc2)n1-c1ccc(F)cc1` [UL1-014, N^2,N^5-dibenzyl-1-(4-fluorophenyl)-3,4-dihydroxy-N^2,N^5-dimethyl-1H-pyrrole-2,5-dicarboxamide] cannot be ordered by IC50: under 10 µM for the first, under 10 µM for the second.

First: CCOC(=O)c1c(OCc2ccccc2)c(OCc2ccccc2)c(-c2cccnc2)n1-c1ccc(OC)cc1 [UL1-085, ethyl 3,4-bis(benzyloxy)-1-(4-methoxyphenyl)-5-(pyridin-3-yl)-1H-pyrrole-2-carboxylate]
Second: CCOC(=O)c1c(OCc2ccccc2)c(OCc2ccccc2)c(-c2ccccc2OC)n1-c1ccc(OC)cc1 [UL1-081, ethyl 3,4-bis(benzyloxy)-5-(2-methoxyphenyl)-1-(4-methoxyphenyl)-1H-pyrrole-2-carboxylate]
The IC50 of the first is lower: under 10 µM for the first, 20 to 60 µM for the second.

First: COc1ccc(-n2c(C#N)c(O)c(O)c2C#N)cc1 [UL1-034, 3,4-dihydroxy-1-(4-methoxyphenyl)-1H-pyrrole-2,5-dicarbonitrile]
Second: CCOC(=O)c1c(OCc2ccccc2)c(OCc2ccccc2)c(-c2nnc(CC)o2)n1-c1ccc(OC)cc1 [UL1-088, ethyl 3,4-bis(benzyloxy)-5-(5-ethyl-1,3,4-oxadiazol-2-yl)-1-(4-methoxyphenyl)-1H-pyrrole-2-carboxylate]
The IC50 of the first is higher: 20 to 60 µM for the first, 10 to 20 µM for the second.

`CCOC(=O)c1c(OCc2ccccc2)c(OCc2ccccc2)c(-c2nn[nH]n2)n1-c1ccc(OC)cc1` [UL1-090, ethyl 3,4-bis(benzyloxy)-1-(4-methoxyphenyl)-5-(2H-tetrazol-5-yl)-1H-pyrrole-2-carboxylate] and `COc1ccc(-n2c(C(=O)N(C)C)c(OCc3ccccc3)c(OCc3ccccc3)c2C(=O)N2CCCCC2)cc1` [UL1-057, 3,4-bis(benzyloxy)-1-(4-methoxyphenyl)-N,N-dimethyl-5-(piperidine-1-carbonyl)-1H-pyrrole-2-carboxamide] cannot be ordered by IC50: under 10 µM for the first, under 10 µM for the second.

Same assay, conditions: IC50, inhibition of pneumolysin-induced haemolysis of sheep erythrocytes; specific values

Point of comparison: `CCOC(=O)c1c(O)c(O)c(-c2nn[nH]n2)n1-c1ccc(OC)cc1` [UL1-089, ethyl 3,4-dihydroxy-1-(4-methoxyphenyl)-5-(2H-tetrazol-5-yl)-1H-pyrrole-2-carboxylate], IC50 0.4 µM. Against it:
- COc1ccc(-n2c(C(=O)N3CCCCC3)c(OCc3ccccc3)c(OCc3ccccc3)c2C(=O)N2CCCCC2)cc1 [UL1-049, (3,4-bis(benzyloxy)-1-(4-methoxyphenyl)-1H-pyrrole-2,5-diyl)bis(piperidin-1-ylmethanone)] — within 1.5-fold, 0.479 µM
- CN(C)C(=O)c1c(O)c(O)c(C(=O)N(C)C)n1-c1ccc(C(F)(F)F)cc1 [UL1-028, 3,4-dihydroxy-N^2,N^2,N^5,N^5-tetramethyl-1-(4-(trifluoromethyl)phenyl)-1H-pyrrole-2,5-dicarboxamide] — 5.9-fold lower, 0.068 µM

Source: patent US9221756B2, “Pyrrole derivatives” (priority 2011, dated 2015)
